In experiment [1] the target is T1, MAGL (Homo sapiens, UniProt Q99685).
T1 construct: Proteomes (human prefrontal cortex or cell membrane fractions); from tissue; host or cells: human prefrontal cortex (or cell membrane fractions)
T1 sequence (Q99685 1-303): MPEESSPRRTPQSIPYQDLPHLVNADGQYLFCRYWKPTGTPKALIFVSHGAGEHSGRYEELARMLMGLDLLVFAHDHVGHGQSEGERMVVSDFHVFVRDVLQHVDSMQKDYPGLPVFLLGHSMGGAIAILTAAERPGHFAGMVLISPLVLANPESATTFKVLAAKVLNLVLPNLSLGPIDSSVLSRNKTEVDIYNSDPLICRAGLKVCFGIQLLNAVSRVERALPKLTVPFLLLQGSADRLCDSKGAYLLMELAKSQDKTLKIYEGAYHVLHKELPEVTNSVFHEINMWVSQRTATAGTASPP
The experiment can be described thus: In vitro competitive activity-based protein profiling (human), MAGL gel band. It counts as biochemical. Summed up:
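Human prefrontal cortex or cell membrane proteomes (1.0-2.0 mg/mL protein) preincubated with inhibitors 30 min at 37° C, then labelled with FP-Rh or JW912 probe 30 min at room temperature. Residual MAGL activity read as fluorescent gel-band intensity after SDS-PAGE.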

The next experiment deals with T2, FAAH (Mus musculus, UniProt O08914).
T2 construct: Proteomes (mouse brain membrane fraction or cell lysates); from tissue; host or cells: mouse brain membrane fraction (or cell lysates)
T2 sequence (O08914 1-579): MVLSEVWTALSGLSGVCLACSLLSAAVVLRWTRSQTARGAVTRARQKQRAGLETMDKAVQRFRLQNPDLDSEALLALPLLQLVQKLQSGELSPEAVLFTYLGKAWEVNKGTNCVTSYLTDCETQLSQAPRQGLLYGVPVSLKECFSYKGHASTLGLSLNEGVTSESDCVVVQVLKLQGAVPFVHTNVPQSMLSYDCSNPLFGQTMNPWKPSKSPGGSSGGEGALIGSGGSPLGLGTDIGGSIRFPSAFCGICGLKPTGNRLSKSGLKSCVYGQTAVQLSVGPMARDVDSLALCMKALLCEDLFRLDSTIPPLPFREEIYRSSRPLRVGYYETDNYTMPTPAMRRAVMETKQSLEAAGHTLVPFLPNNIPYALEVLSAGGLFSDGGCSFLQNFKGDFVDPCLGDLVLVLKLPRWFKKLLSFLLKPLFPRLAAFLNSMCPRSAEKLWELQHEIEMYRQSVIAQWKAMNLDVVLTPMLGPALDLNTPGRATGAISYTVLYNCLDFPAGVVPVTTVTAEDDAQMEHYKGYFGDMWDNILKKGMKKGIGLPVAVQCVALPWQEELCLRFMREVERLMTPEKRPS
The experiment in a line: In vitro competitive activity-based protein profiling (mouse), FAAH gel band. The format is biochemical. Conditions: for IC50: mouse; for inhibition at 1 µM: read-out: FAAH % inh. 1 μM. The essentials: (§1)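 Mouse brain membrane proteome or cell lysate (1.0 mg/mL total protein) was preincubated with varying inhibitor concentrations for 30 min at 37 °C, then labelled for 30 min at 37 °C with FP-Rh or HT-01 (50 μM stock in DMSO). Activity was read as fluorescent band intensity after SDS-PAGE.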

The target in experiment [2] is T3, MAGL (Mus musculus, UniProt O35678).
T3 construct: Proteomes (mouse brain membrane fraction or cell lysates); from tissue; host or cells: mouse brain membrane fraction (or cell lysates)
T3 sequence (O35678 1-303): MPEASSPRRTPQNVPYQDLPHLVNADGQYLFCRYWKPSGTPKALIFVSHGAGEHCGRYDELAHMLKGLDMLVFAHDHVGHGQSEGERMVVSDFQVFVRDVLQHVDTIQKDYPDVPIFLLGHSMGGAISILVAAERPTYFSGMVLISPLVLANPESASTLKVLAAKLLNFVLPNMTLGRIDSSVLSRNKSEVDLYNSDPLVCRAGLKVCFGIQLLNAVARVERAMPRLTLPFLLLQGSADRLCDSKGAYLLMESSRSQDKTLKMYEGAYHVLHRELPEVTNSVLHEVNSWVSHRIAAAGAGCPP
The experiment in a line: Mouse brain proteomes from inhibitor treated mice (oral gavage, sacrificed 4 h after administration). The format is in vivo. To be noted: read-out: MAGL % inh. 5 mg/kg. The essentials:
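Wild-type C57Bl/6J mice got compound by oral gavage in polyethylene glycol vehicle. Brain proteomes were prepared 4 h after dosing and analyzed for serine hydrolase activity.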

The target of experiment [3] is T3, MAGL. The experiment in a line: In vitro competitive activity-based protein profiling (mouse), MAGL gel band. The format is biochemical. Conditions: for IC50: mouse; for inhibition at 1 µM: read-out: MAGL % inh. 1 μM. Summed up: as §1

Usually IC50 stands for the point on the concentration scale where inhibition reaches its midpoint. Higher therefore signals lower potency.

Turning to `CS(=O)(=O)Nc1ccn(C(=O)N2CCN(Cc3cc(N4CCCC4)cc(C(F)(F)F)c3)CC2)n1` [Example 156, N-(1-(4-(3-(pyrrolidin-1-yl)-5-(trifluoromethyl)benzyl)piperazine-1-carbonyl)-1H-pyrazol-3-yl) methanesulfonamide], the IC50 at MAGL [1] is at most 100 nM; on FAAH, 1000 to 10000 nM; on MAGL [3], at most 100 nM. Further, the inhibition at 1 µM was 0 to 25% on FAAH and at least 75% at MAGL [3]. At MAGL [2], the inhibition at 5 mg/kg is at least 75%.

In turn, `CS(=O)(=O)Nc1ccn(C(=O)N2CCN(Cc3ccc(Cl)c(N4CCCC4)c3)CC2)n1` [Example 165, N-(1-(4-(4-chloro-3-(pyrrolidin-1-yl)benzyl)piperazine-1-carbonyl)-1H-pyrazol-3-yl) methanesulfonamide] yielded an IC50 on MAGL [1] of at most 100 nM. In addition, the inhibition at 1 µM on FAAH is 0 to 25%; at MAGL [3] it was at least 75%. For the same compound, the inhibition at 5 mg/kg on MAGL [2] is at least 75%.

`CS(=O)(=O)Nc1ccn(C(=O)N2CCN(Cc3ccc(C(F)(F)F)cc3N3CCC3)CC2)n1` [Example 175, N-(1-(4-(2-(azetidin-1-yl)-4-(trifluoromethyl)benzyl)piperazine-1-carbonyl)-1H-pyrazol-3-yl) methanesulfonamide] gave an IC50 on MAGL [1] of at most 100 nM. Besides, the inhibition at 1 µM is 0 to 25% at FAAH and at least 75% at MAGL [3]. Also, the inhibition at 5 mg/kg at MAGL [2] is at least 75%.

For `CS(=O)(=O)Nc1ccn(C(=O)N2CCN(Cc3ccc(C(F)(F)F)cc3N3CCC(C(=O)O)CC3)CC2)n1` [Example 186, 1-(2-((4-(3-(methylsulfonamido)-1H-pyrazole-1-carbonyl)piperazin-1-yl)methyl)-5-(trifluoromethyl)phenyl)piperidine-4-carboxylic acid], the IC50 at MAGL [1] lay within 100 to 1000 nM; at FAAH, 1000 to 10000 nM; at MAGL [3] it was 100 to 1000 nM. For the same compound, the results for the inhibition at 1 µM at FAAH and at MAGL [3] were 0 to 25% and at least 75%, respectively. For the same compound, at MAGL [2], the inhibition at 5 mg/kg fell in the range of 0 to 25%.

In the case of `CS(=O)(=O)Nc1ccn(C(=O)N2CCN(Cc3ccc(C(F)(F)F)cc3N3CCCC3)CC2)n1` [Example 188, N-(1-(4-(2-(pyrrolidin-1-yl)-4-(trifluoromethyl)benzyl)piperazine-1-carbonyl)-1H-pyrazol-3-yl) methanesulfonamide], the IC50 on MAGL [1] was at most 100 nM; at FAAH, 1000 to 10000 nM; at MAGL [3], at most 100 nM. The inhibition at 1 µM on FAAH was 0 to 25%; at MAGL [3] it was at least 75%. Besides, the inhibition at 5 mg/kg on MAGL [2] was at least 75%.

Take `CS(=O)(=O)Nc1ccn(C(=O)N2CCC3(CCCN3Cc3ccc(C(F)(F)F)cc3N3CC4COCC4C3)CC2)n1` (stereo not shown) [Example 199, N-(1-(1-(2-(tetrahydro-1H-furo[3,4-c]pyrrol-5(3H)-yl)-4-(trifluoromethyl)benzyl)-1,8-diazaspiro[4.5]decane-8-carbonyl)-1H-pyrazol-3-yl) methanesulfonamide]: on MAGL [1], the IC50 was at most 100 nM. Also, the inhibition at 1 µM was 0 to 25% at FAAH and at least 75% on MAGL [3]. Besides, the inhibition at 5 mg/kg on MAGL [2] lay in the range of 25 to 50%.

At MAGL [1], `CC1CCCN1c1cc(CN2CCN(C(=O)n3ccc(NS(C)(=O)=O)n3)CC2)ccc1Cl` (stereo not shown) [Example 200, N-(1-(4-(4-chloro-3-(2-methylpyrrolidin-1-yl)benzyl)piperazine-1-carbonyl)-1H-pyrazol-3-yl) methanesulfonamide] gave an IC50 of at most 100 nM. Further, the figures for the inhibition at 1 µM on FAAH and on MAGL [3] were 0 to 25% and at least 75%, respectively. Also, the inhibition at 5 mg/kg on MAGL [2] is at least 75%.

Turning to `CS(=O)(=O)Nc1ccn(C(=O)N2CCN(Cc3ccc(Cl)c(N4CCC(F)CC4)c3)CC2)n1` [Example 201, N-(1-(4-(4-chloro-3-(4-fluoropiperidin-1-yl)benzyl)piperazine-1-carbonyl)-1H-pyrazol-3-yl) methanesulfonamide], on MAGL [1], the IC50 is at most 100 nM. For the same compound, the inhibition at 1 µM at FAAH is 0 to 25%; on MAGL [3], at least 75%. The inhibition at 5 mg/kg at MAGL [2] was at least 75%.

`CS(=O)(=O)Nc1ccn(C(=O)N2CCN(Cc3ccc(Cl)c(N4CCN(C5CC5)CC4)c3)CC2)n1` [Example 202, N-(1-(4-(4-chloro-3-(4-cyclopropylpiperazin-1-yl)benzyl)piperazine-1-carbonyl)-1H-pyrazol-3-yl) methanesulfonamide]: the IC50 on MAGL [1] is at most 100 nM. For the same compound, the figures for the inhibition at 1 µM on FAAH and on MAGL [3] were 0 to 25% and at least 75%, respectively. The inhibition at 5 mg/kg on MAGL [2] lay within 0 to 25%.

As for `CS(=O)(=O)Nc1ccn(C(=O)N2CCN(Cc3ccc(Cl)c(N4CC5COCC5C4)c3)CC2)n1` (stereo not shown) [Example 203, N-(1-(4-(4-chloro-3-(tetrahydro-1H-furo[3,4-c]pyrrol-5(3H)-yl)benzyl)piperazine-1-carbonyl)-1H-pyrazol-3-yl) methanesulfonamide], the results for the IC50 on MAGL [1], on FAAH and on MAGL [3] were at most 100 nM, 1000 to 10000 nM and at most 100 nM, respectively. For the same compound, the inhibition at 1 µM is 0 to 25% on FAAH and at least 75% at MAGL [3]. Further, at MAGL [2], the inhibition at 5 mg/kg was in the range of 0 to 25%.

Regarding `CS(=O)(=O)Nc1ccn(C(=O)N2CCN(Cc3ccc(Cl)c(N4C5CCC4COC5)c3)CC2)n1` [Example 204, N-(1-(4-(3-(3-oxa-8-azabicyclo[3.2.1]octan-8-yl)-4-chlorobenzyl)piperazine-1-carbonyl)-1H-pyrazol-3-yl) methanesulfonamide], the results for the IC50 on MAGL [1], on FAAH and at MAGL [3] were at most 100 nM, 1000 to 10000 nM and 100 to 1000 nM, respectively. Moreover, the inhibition at 1 µM on FAAH was 0 to 25%; on MAGL [3] it was at least 75%. Besides, on MAGL [2], the inhibition at 5 mg/kg fell in the range of 0 to 25%.

The compound `CC(=O)N1CC2CCC(C1)N2c1cc(C(F)(F)F)ccc1CN1CCN(C(=O)n2ccc(NS(C)(=O)=O)n2)CC1` [Example 207, N-(1-(4-(2-(3-acetyl-3,8-diazabicyclo[3.2.1]octan-8-yl)-4-(trifluoromethyl)benzyl)piperazine-1-carbonyl)-1H-pyrazol-3-yl) methanesulfonamide] yielded an IC50 on MAGL [1] of at most 100 nM. Also, the inhibition at 1 µM was 0 to 25% on FAAH and at least 75% on MAGL [3]. In addition, on MAGL [2], the inhibition at 5 mg/kg fell in the range of 0 to 25%.

`CS(=O)(=O)Nc1ccn(C(=O)N2CCN(Cc3ccc(Cl)c(N4CC5CN(S(C)(=O)=O)CC5C4)c3)CC2)n1` (stereo not shown) [Example 217, N-(1-(4-(4-chloro-3-(5-(methylsulfonyl)hexahydropyrrolo[3,4-c]pyrrol-2(1H)-yl)benzyl)piperazine-1-carbonyl)-1H-pyrazol-3-yl) methanesulfonamide] returned an IC50 on MAGL [1] of at most 100 nM. Besides, the inhibition at 1 µM was 0 to 25% on FAAH and at least 75% at MAGL [3]. The inhibition at 5 mg/kg on MAGL [2] lay within 0 to 25%.

With `CS(=O)(=O)Nc1ccn(C(=O)N2CCN(Cc3ccc(C(F)(F)F)c(N4C5CCC4COC5)c3)CC2)n1` [Example 218, N-(1-(4-(3-(3-oxa-8-azabicyclo[3.2.1]octan-8-yl)-4-(trifluoromethyl)benzyl)piperazine-1-carbonyl)-1H-pyrazol-3-yl) methanesulfonamide], the IC50 on MAGL [1] was at most 100 nM. Moreover, the inhibition at 1 µM on FAAH is 0 to 25%; at MAGL [3] it was at least 75%. Besides, the inhibition at 5 mg/kg on MAGL [2] was 25 to 50%.

On to `CS(=O)(=O)Nc1ccn(C(=O)N2CCN(Cc3ccc(Cl)c(OC4CCOCC4)c3)CC2)n1` [Example 219, N-(1-(4-(4-chloro-3-((tetrahydro-2H-pyran-4-yl)oxy)benzyl)piperazine-1-carbonyl)-1H-pyrazol-3-yl) methanesulfonamide], for which the IC50 on MAGL [1] is at most 100 nM. Further, the inhibition at 1 µM at FAAH was 0 to 25%; on MAGL [3] it was at least 75%. In addition, the inhibition at 5 mg/kg on MAGL [2] lay within 25 to 50%.
